One series concerns HFD-fed C57BL/6J mice. It counts as in vivo, mouse. As to conditions: 8 weeks.
Series [1] deals with participants with type 2 diabetes. It counts as in vivo, human. To be noted: 32 weeks.
For series [2], the system named is patients with T2D and established CVD. The format is in vivo, human.
The subject of a further series is HHTg-OVX rats. It counts as in vivo, rat. As to conditions: 12.5 μg/kg b.wt./day s.c., 12 weeks.
The subject of another series is db/db mice. The format is in vivo, mouse.
Series [3] has as its system patients with type 2 diabetes. It counts as in vivo, human. To be noted: Ipr 50 mg or Met 1000 mg, 24 weeks, n=15 per group.
For another series, the system named is human islets. It counts as cell-based.
The next series deals with human β-cells. It counts as cell-based.
Another series has as its system perifused human islets. The format is cell-based.
A further series deals with patients with T2D. The format is in vivo, human.
Another series concerns patients with T2D and HF. It counts as in vivo, human.
In the next series the test system is HUVECs. It counts as cell-based, human.
The subject of the next series is HHTg rats. The format is in vivo, rat. As to conditions: 10 mg/kg/day, 8 weeks.
Series [4] concerns patients with T2D and metabolic syndrome. Details: species or system human. As to conditions: in vivo.
In a further series the test system is patients with T2DM. The format is in vivo, human.
Series [5] is classed as in vivo, mice. As to conditions: 40 mg/kg.
In another series the test system is isolated human islets. The format is cell-based. To be noted: metformin added after 0.5 day, n=7.
In series [6] the test system is male C57BL/6 mice on 45% HFD. As to conditions: mouse, in vivo.
Another series relates to db/db mice retinas. It counts as in vivo, mouse.
Series [7] concerns people with type 2 diabetes. It counts as in vivo, human. To be noted: 16 weeks; pioglitazone 30mg, sitagliptin 100mg, canagliflozin 100mg.
The subject of series [8] is adults with type 2 diabetes. It counts as in vivo, human.
Another series has as its system EndocBH5. The format is cell-based, human. As to conditions: 96 well plates.
In another series the test system is HCAECs. The format is cell-based, human.
Series [9] has as its system cultured subcutaneous adipocytes. The format is cell-based. As to conditions: preliminary data.
Series [10] concerns thromboxane receptor, primary human myotubes. The format is cell-based.
Series [11] relates to isolated mouse skeletal muscle (EDL and soleus). The format is cell-based. To be noted: [14C]-glucose, n=7-8.
A further series has as its system mice. It counts as in vivo, mouse. To be noted: acute administration, n=7-8.
The test system of series [12] is βV59M diabetic mouse islets. The format is cell-based. As to conditions: diabetic islets + 10μM, 48 hours; n=7-8.
A further series has as its system cultured human podocytes. The format is cell-based.
On the set-up of series [13]: species or system human. To be noted: in vivo.
In series [14] the test system is LADA individuals. As to conditions: for GAD65 stimulation index of PBMC proliferation: LADA, median (Q1, Q3).
Series [15] concerns LADA individuals. As to conditions: corresponding findings in type 1 diabetes (n=56), ref not given, cited from earlier work.
Series [16] deals with people with type 2 diabetes. The format is in vivo, human. As to conditions: 15 mg, 28 weeks.

Where two headings read alike, the source gives them in different places. Some results are limits rather than exact numbers.

Regarding `OC[C@H]1O[C@@H](c2ccc(Cl)c(Cc3ccc(O[C@H]4CCOC4)cc3)c2)[C@H](O)[C@@H](O)[C@@H]1O` [EMPA, Empagliflozin], in the series on HFD-fed C57BL/6J mice (10 mg/kg/day oral gavage, HFD), the final body weight was 44.87 ± 1.42 g. In the series with HFD-fed C57BL/6J mice (10 mg/kg/day), this compound showed an FFA of 746.30 ± 56.59 µmol/L, a UACR of 21.01 ± 1.99 µg/µmol, a fat mass of 11.75 ± 0.78 g and a fat/weight of 26.08 ± 1.09%. Further, the triglyceride in the series on HFD-fed C57BL/6J mice (10 mg/kg/day) was 29.31 ± 2.71 mg/dL. Further, in [1], the “change in GFR from baseline and compared to placebo” value is given as -18 mL/min. Moreover, in [2] (all baseline groups), the “OR (95% CI) for improved risk vs placebo” value is listed as 1.56 (1.30, 1.86) and the “OR (95% CI) for worsening risk vs placebo” value was 0.70 (0.62, 0.78).
`C[C@]12CC[C@@H]3c4ccc(O)cc4CC[C@H]3[C@@H]1CC[C@@H]2O` [Estradiol, 17-β estradiol]: in the series on HHTg-OVX rats, the “change in ectopic TAG deposition, kidneys” value was -23% and the “change in ectopic TAG deposition, liver” value is -16%.
As to `C[C@H]1N=C(N(C)C)N=C(N)N1` [Imeglimin], the “random blood glucose levels vs vehicle” value in the series on db/db mice (150 mg/kg B.I.D. oral, age 6-10 weeks) is reported as “significantly lower”. In the series with db/db mice (at 10 weeks), the “loss of RI intensity in the pancreas (SPECT/CT)” value is “significantly attenuated”.
Regarding `OC[C@H]1O[C@@H](c2ccc(F)c(Cc3cc4ccccc4s3)c2)[C@H](O)[C@@H](O)[C@@H]1O` [Ipr, ipragliflozin], in series [3], the “change in visceral fat area” value is listed as -17.8%.
As for `CN(C)C(=N)N=C(N)N` [Met, Metformin], in series [3], the “change in visceral fat area” value is -4.7%. Moreover, in the series with human islets (cytokines 48 h plus 2.4 μg/ml), the “caspase 3/7 activity” value worked out at 1.2±0.1. Also, the insulin stimulation index in the series with human islets (cytokines (IL-1β 50 U/ml + IFN-γ 1000 U/ml) 48 h plus 2.4 μg/ml, mean±SEM) was found to be 4.7±1.6.
`NC(=O)N1c2ccccc2C=Cc2ccccc21` [carbamazepine]: the “cytokine- and ER stress-induced β-cell death” value with human β-cells is “protected”. Also, the glucose-stimulated insulin secretion entry in the series on perifused human islets is given as “moderately reduced”.
With `OC[C@H]1O[C@@H](c2ccc(Cl)c(Cc3ccc(O[C@H]4CCOC4)cc3)c2)[C@H](O)[C@@H](O)[C@@H]1O` [empagliflozin], in the series with patients with T2D (cardiac MRI), the “∆LVEF Rest, E vs I” value is listed as -0±2%; the “∆LVEF Rest, treatment vs washout” value is listed as 2 ±1%; the “∆LVPFR Rest, E vs I” value was -55 ± 19 mL/s; the “∆LVPFR Rest, treatment vs washout” value is -38 ± 19 mL/s. In the series with patients with T2D (chronotropic stress), the “∆LVEF Stress, E vs I” value came to 1±1%; the “∆LVEF Stress, treatment vs washout” value is -1±2%; the “∆LVPFR Stress, E vs I” value was -11 ± 47 mL/s; the “∆LVPFR Stress, treatment vs washout” value was -4 ± 45 mL/s. In addition, in the series on patients with T2D (fasting, end of 5 weeks), the 3-OH butyrate was found to be 0.27 ± 0.03 mM, the FFAs amounted to 0.60 ± 0.03 mM and the serum insulin was found to be 103 ± 14 pM. The “reduction of KIM-1 levels compared to placebo” value in the series on patients with T2D and HF (25 mg, week 48, EFFORT-2) turned out to be 38%. The “LVEDD difference from placebo” value in the series on patients with T2D and HF (week 24, EFFORT-1) was -7.88. Further, the “LVEDD difference from placebo” value in the series on patients with T2D and HF (week 48, EFFORT-1) was -4.40. The “posterior wall diameter difference from placebo” value in the series on patients with T2D and HF (week 48, EFFORT-2) was -2.29. In the series with HUVECs, the “expression of inflammatory markers” value is reported as “did not significantly impact”. The “patients with improvement in KDIGO CKD risk” value (shortened to “patients with improvement”) in series [2] (high baseline risk group) is recorded as 27.1%. In addition, the “patients with worsening KDIGO CKD risk” value in series [2] (high risk baseline group) was determined as 23.3%. Besides, the “patients with worsening KDIGO CKD risk” value in series [2] (low risk baseline group, 10, 25 mg pooled) is recorded as 26.0%. Further, the “patients with improvement” value in series [2] (moderate baseline risk group) was found to be 24.6%. Moreover, the “patients with worsening KDIGO CKD risk” value in series [2] (moderate risk baseline group) worked out at 24.4%. In series [2] (very high baseline risk group), the “patients with improvement” value turned out to be 26.2%. In addition, in the series on HHTg rats, the “non-fasting glucose and insulin” value is “markedly decreased”; the serum triglycerides levels result is reported as “reduced”.
Regarding `CC(C)OC(=O)C(C)(C)Oc1ccc(C(=O)c2ccc(Cl)cc2)cc1` [fenofibrate], in series [4], the “HR for primary outcome, patients with retinopathy at baseline” value is given as 0.86.
Regarding `Cc1ccc(S(=O)(=O)NC(=O)NN2CC3CCCC3C2)cc1` (stereo not drawn) [gliclazide], the “incidence of severe hypoglycaemia” value came out at 0.75 %/year in the series with patients with T2DM (female) and 0.41 %/year in the series on patients with T2DM (male). For the same compound, in series [5], the “insulin secretion after the OGTT” value is on record as “increased”.
Take `CN(C)C(=N)N=C(N)N` [metformin]: the “reduction of insulin secretion vs 1 day palmitate only” value with isolated human islets is listed as 18%. The “loss of excess body weight vs untreated mice” value in [6] is listed as 30%.
With `N[C@@H](CC(=O)N1CCn2c(nnc2C(F)(F)F)C1)Cc1cc(F)c(F)cc1F` [sitagliptin], the “diabetes-induced down-regulation of presynaptic proteins” value in the series with db/db mice retinas (eye drops 5 μL/eye, 10 mg/mL, twice per day, 2 weeks) is “inhibits this diabetes-induced down-regulation”. Further, the blood glucose levels result with db/db mice retinas (topical) was “without any effect”. The “achieved HbA1c” value in [7] is recorded as 59.9 mmol/mol.
Turning to `CC[C@H](C)[C@H](NC(=O)[C@H](CC(C)C)NC(=O)[C@H](Cc1c[nH]c2ccccc12)NC(=O)[C@H](CCC(N)=O)NC(=O)[C@@H](NC(=O)[C@H](Cc1ccccc1)NC(=O)[C@H](C)NC(=O)[C@H](CCCCNC(=O)COCCOCCNC(=O)COCCOCCNC(=O)CC[C@H](NC(=O)CCCCCCCCCCCCCCCCCCC(=O)O)C(=O)O)NC(=O)[C@H](CCC(N)=O)NC(=O)[C@H](C)NC(=O)[C@@H](NC(=O)[C@H](CCCCN)NC(=O)[C@H](CC(=O)O)NC(=O)[C@H](CC(C)C)NC(=O)C(C)(C)NC(=O)[C@@H](NC(=O)[C@H](CO)NC(=O)[C@H](Cc1ccc(O)cc1)NC(=O)[C@H](CC(=O)O)NC(=O)[C@H](CO)NC(=O)[C@@H](NC(=O)[C@H](Cc1ccccc1)NC(=O)[C@@H](NC(=O)CNC(=O)[C@H](CCC(=O)O)NC(=O)C(C)(C)NC(=O)[C@@H](N)Cc1ccc(O)cc1)[C@@H](C)O)[C@@H](C)O)[C@@H](C)CC)[C@@H](C)CC)C(C)C)C(=O)N[C@@H](C)C(=O)NCC(=O)NCC(=O)N1CCC[C@H]1C(=O)N[C@@H](CO)C(=O)N[C@@H](CO)C(=O)NCC(=O)N[C@@H](C)C(=O)N1CCC[C@H]1C(=O)N1CCC[C@H]1C(=O)N1CCC[C@H]1C(=O)N[C@@H](CO)C(N)=O` [tirzepatide], the “MD in triglycerides vs GLP-1 receptor agonists” value in [8] (5 mg once weekly, random effects) is -12.51 mg/dL; in series [8] (15 mg once weekly) it was -24.98 mg/dL. Besides, the “increased insulin secretion over high glucose” value with EndocBH5 is listed as over 3 fold.
In the case of `COc1ccc(C(=O)O[C@H]2CC[C@@]3(C)[C@@H]4CC[C@H]5[C@]6(O)C[C@H](O)[C@@]7(O)[C@@H](CN8C[C@@H](C)CC[C@H]8[C@@]7(C)O)[C@]6(O)C[C@@]53O[C@]24O)cc1OC` [veratridine], the “cytokine- and ER stress-induced β-cell death” value in the series with human β-cells is recorded as “increased cell death”. For the same compound, the glucose-stimulated insulin secretion result with perifused human islets was “increased insulin secretion”.
With CCL5, in the series on HCAECs, the endothelial function entry was “displayed endothelial dysfunction”.
With Fas ligand [FasL], the “isoproterenol-induced UCP1 protein levels” value in [9] is listed as “decreased”.
On to I-BOP, for which the “increase in glucose incorporation into glycogen” value in series [10] (n=4) is recorded as “+398%”. For the same compound, in series [10] (n=5), the “increase in glucose oxidation” value is “+28%” and the “increase in glucose uptake” value is on record as “+53%”. The “increase in ex-vivo skeletal muscle glucose oxidation” value in series [11] is listed as “+118%”. The “change in glucose tolerance AUC” value in the series with mice is -34%.
Consider PF-4708671 [S6Ki], for which, in series [12], the “glucose-stimulated increase in OCR above baseline” value was 203.94±39.24% and the “oligomycin-induced decrease in OCR” value was 240.32±9.71%.
Regarding TGF-β, the “suppression of Tcf21 expression” value with cultured human podocytes turned out to be 58%.
Regarding insulin glargine 300 U/mL [Gla-300], the “Rates of hypoglycaemia at <3.9 to ≥3.0 mmol/L and <3.0 mmol/L” value in series [13] is “did not differ between groups”.
Take rhGAD65: the “GAD65 stimulation index of PBMC proliferation” value with LADA individuals [14] (2 months from baseline, 3 injections of 4 μg) is reported as 2.16 (1.25, 3.06); in the series on LADA individuals [14] (5 months from baseline), 2.34 (1.81, 3.58); with LADA individuals [15] (2 months), 2.77 (1.96, 6.05); in the series with LADA individuals [15] (5 months), 3.19 (2.02, 6.19). In the series with LADA individuals [14] (in vivo), the “postprandial 2 hour C-peptide” value was 1.45 (1.25, 1.85) nmol/L. Moreover, in the series with LADA individuals [14] (interim analysis at 5 months), the serious adverse events entry is on record as “no treatment-related serious adverse events”.
With tirzepatide [TZP], in series [16], the “insulin sensitivity (M-value), first and second phase ISR and beta-cell glucose sensitivity during EGC and HGC” value was “more than SEMA and placebo”.
